The text below walks through data of patent publication US20240270786A1, “STEROID COMPOUNDS” (Epirium Bio Inc., priority 2022, published 2024).

Several values for one entry are separate records, joined by “and”; a condition that tells them apart may be missing. Equal entries are not always repeated.

In general, AUC(0-inf) refers to the area under the concentration-time curve extrapolated to infinity. Read a high AUC(0-inf) as high exposure. As a reminder, the AUC(0-t) is exposure summed from dosing to a finite time, without extrapolation to infinity. By Cmax is commonly meant the maximum level reached in the sampled fluid or tissue. Broadly, the Tmax is the time at which the peak concentration occurs.

Series [1] is described as follows: Pharmacokinetics: quantitative determination of compounds in mice plasma. Format: in vivo, C57BL/6 Mice. To be noted: 10 mg/kg PO single dose, vehicle 10% NMP; for AUC(0-inf) / AUC(0-t) / Cmax / Tmax: C57BL/6, mouse. The procedure: C57BL/6 Mice, Age 7-9 weeks, body weight range 20-25 g were used. The mice were fasted overnight. Mice were dosed once a day for a single day at 10 mg/kg, 10 mg/kg. 6 time-points were used for whole blood. 10% NMP was used as a vehicle. 9 animals were used per treatment, with three groups of three animals each. Group 1 had time points at 15 and 60 minutes, Group 2 had time points at 30 and 120 minutes, and Group 3 had time points at 90 and 240 minutes. An Oral (PO) route was used. Plasma and brain samples were collected (brain sample collected at terminal time point). Plasma was collected through the centrifugation of whole blood at 10,000 rpm for 10 minutes at 4° C. Samples were stored at −80° C. until processing.
1.00 mg/mL in 100% MeOH PP vials (prepared at RT yellow light) at 2-8° C. were used as stock solution. 12.22-50000 ng/mL using 80% MeOH PP vials (prepared at RT yellow light) at 2-8° C. were used as working solution. 0.98-4000 ng/mL (prepared at RT yellow light) was used for the curve range. For Compounds 26, 40, and 50, 1.00 mg/mL of Compound 53 in 100% methanol Ria vials (Prepared at RT yellow light) was used as IS stock solution, and 80 ng/mL of Compound 53 in 80% methanol (Prepared at RT yellow light) was used as IS working solution. For Compound 36, 1.00 mg/mL of Compound 47 in 100% methanol Ria vials (Prepared at RT yellow light) was used as IS stock solution, and 80 ng/mL of Compound 47 in 80% methanol (Prepared at RT yellow light) was used as IS working solution. A linear, 1/×2 fit type was used. The injection volume was 10 μL for Compounds 26 and 36, and 5 μL for Compounds 40 and 50. Mobile Phase A was 0.1% Formic Acid in water at room temperature. Mobile Phase B was 100% methanol at room temperature. R0 wash solution was 80% methanol at room temperature. R3 wash solution was IPA/MeOH/ACN/water (1:1:1:1) at room temperature. The column was Agilent Eclipse 50*2.1 mm 1.8 μm and the instrument was Shimadzu LC-40 UPLC and AB Sciez 6500+ with LCMS002.
Using a pipette, 25 μL of each sample were aliquoted (calibration curve sample, QC samples and blank matrix) to labeled 1.5 ml eppendorf. Using a pipette, 5.0 μL of IS of conc. 80 ng (Cocktail IS) was aliquoted to each standards and samples except Blank. All tubes were mixed on a multi-tube vortex for approximately 30 seconds. 50 μL of 10 mM Sodium bi-carbonate were added. 1 ml of tert-butyl methyl ether (TBME) was added. All tubes were mixed on a multi-tube vortex for approximately 5 minutes then centrifuged for 10 min at 5,000 rpm for Compounds 26 and 36 and at 10,000 rpm for Compounds 40 and 50, 4° C. The sample was kept in methanol containing dry ice for few seconds to freeze the Aqueous layer (flash freeze method). The upper organic layer was poured from the frozen tubes into the labeled 12×75-mm rial vials and evaporated to dryness under nitrogen using Liquid Evaporator (30° C., ˜15 psi, ˜10 mins). 200 μl of reconstitution solution (0.1% Formic Acid: MeOH (20:80 v/v) were added into each tube. Samples were Vortexed for 30 seconds then transferred to amber glass injection vials for injection.
After test item administration, blood samples were collected from individual animals in previously labeled Heparinised blood collection tubes. Blood samples were collected from retro orbital plexus. The time points for collection of blood samples from all the animals are; 0.25, 0.5, 1, 2 and 4 hr. The collected samples were subjected to centrifugation @ 10,000 rpm for 10 minutes at 40° C. for separation of plasma. Thereafter, plasma samples were collected in previously labeled plasma tubes. These were stored at −80° C. until analysis.

Series [2] relates to PGC-1α expression in C2C12 cells. Description: In vitro PGC-1α expression in C2C12 cells (cell ELISA). The class given is cell-based. To be noted: 0.01 nM, 5000 cells/well, OD @ 650 nm, DMSO control = 100. Here is the method: Culture conditions: DMEM containing 25 mM glucose with 10% FBS supplementation; grown at 37° C. and 5% CO2.
Drugs: (+)-Epicatechin, AICAR (direct activator of AMPK).
Assay Conditions: C2C12 cells were cultured in DMEM supplemented in 10% FBS upto 80% confluence. The cells were further trypsinized and seeded into a 96 well plate at a density of 5000 cells/well (well volume—100 μL) (Day 0). Following attachment, the cells were allowed to reach 80-90% confluence in the plate (typically 48 hours post seeding) and further differentiated using DMEM+2% Horse Serum (200 μL/well). The media was changed every day or at least every alternate day for 5 days to allow myoblasts to differentiate into myotubes. On day 7 (post seeding), the cells were treated with standards and test compounds for PGC-1 α assay.
PGC-1α assay: For the detection of PGC-1a, the cells were incubated with 0.5 μg/ml primary antibody (Merck, WH0010891M3) in PBS-T containing 5% BSA at 4° C. overnight. The cells were then washed three times with PBS-T for 5 minutes and incubated with 1:1000 dilution secondary antibody (Anti-rabbit IgG, HRP-linked Antibody, Cell Signaling) in PBS-T with 1% BSA for 1 hour at RT. Cells were washed three times with PBS-T for 5 minutes The cells were incubated with 100 μl TMB substrate solution for 30 minutes and the reaction was stopped with 100 μl of 2N H2SO4. […] (For plate optical density calculations, a background correction was taken at 540 nm). The final PGC-1a activation % is average of activation of 6 replicates.
In general terms: In an ELISA, binding on a coated surface is turned into a signal by an enzyme label.

In series [1], `CNC(=O)[C@H]1CCC2C3CC=C4N(C)C(=O)CC[C@]4(C)C3[C@@H](O)C[C@@]21C` (stereo partly drawn) [Compound 40, (4aR,5S,6aS)-5-hydroxy-N,1,4a,6a-tetramethyl-2-oxo-2,3,4,4a,4b,5,6,6a,7,8,9,9a,9b,10-tetradecahydro-1H-indeno[5,4-f] quinoline-7-carboxamide] displayed a T½ of 56 min, an AUC(0-inf) of 2430 ng·h/mL, an AUC(0-t) of 2300 ng·h/mL and a peak concentration (Cmax) of 2200 ng/mL. For the same compound, in series [1], the Tmax was determined as 15 min. For the same compound, in series [2], the “% Activity (PGC-1α expression)” value is 130% and 143%.

In series [1], `CN1C(=O)CC[C@@]2(C)C1=CCC1C2[C@@H](O)C[C@@]2(C)C1CC[C@@H]2NC(=O)C1CC1` (stereo partly drawn) [Compound 26, N-((4aR,5S,6aS,7S)-5-hydroxy-1,4a,6a-trimethyl-2-oxo-2,3,4,4a,4b,5,6,6a,7,8,9,9a,9b,10-tetradecahydro-1H-indeno[5,4-f]quinolin-7-yl)cyclopropanecarboxamide] had a T½ of 62 min, an AUC(0-inf) of 993 ng·h/mL, an AUC(0-t) of 930 ng·h/mL and a Cmax of 2130 ng/mL. Also, in series [1], the Tmax turned out to be 15 min. Further, the “% Activity (PGC-1α expression)” value in series [2] is 129% and 146%.

In series [1], `CC(C)CCNC(=O)C1CCC2C3CC=C4N(C)C(=O)CC[C@]4(C)C3[C@@H](O)C[C@]12C` (stereo partly drawn) [Compound 36, (4aR,5S,6aS)-5-hydroxy-N-isopentyl-1,4a,6a-trimethyl-2-oxo-2,3,4,4a,4b,5,6,6a,7,8,9,9a,9b,10-tetradecahydro-1H-indeno[5,4-f]quinoline-7-carboxamide] returned a T½ of 66.6 min, an AUC(0-inf) of 1640 ng·h/mL, an AUC(0-t) of 1500 ng·h/mL and a Cmax of 1960 ng/mL. Besides, in series [1], the Tmax came to 15 min. Also, in series [2], the “% Activity (PGC-1α expression)” value was 133% and 130%.
